Where two headings read alike, the source gives them in different places.
What was measured:
[1] = tested on: A2780 ovarian cancer cells; experiment: Cellular proliferation in A2780 cells, Cell Titer Glo (Biological Method 4); assay type: cell-based; settings: Homo sapiens
Procedure, shortened: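 Viability after 72 h compound exposure (37 °C, 5% CO2) was read by Cell Titer Glo and an EC50 derived, each condition in duplicate. A2780 ovarian cells had been plated at 1,000 per well in DMEM/10% FBS at least 2 h beforehand.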

[2] = tested on: pSer473 Akt in A2780 cells; experiment: pSer473 Akt assay to monitor PI3K pathway in A2780 cells (Biological Method 2, MSD); assay type: cell-based; settings: Homo sapiens, inhibition of Akt phosphorylation
Description: In this method, an assay for measuring the PI3K-mediated pSer473-Akt status after treatment with representative inhibitor compounds of the invention is described.
A2780 cells were cultured in DMEM supplemented with 10% FBS. L-glutamine, sodium pyruvate, and antibiotics. Cells were plated in the same medium at a density of 15,000 cells per well into 96 well tissue culture plates, with outside wells vacant, and allowed to adhere overnight.
Test compounds supplied in DMSO were diluted further into DMSO at 500 times the desired final concentrations before dilution into culture media to 2 times the final concentrations. Equal volumes of 2× compounds were added to the cells in 96 well plates and incubated at 37° C. for one hour. The media and compounds were then removed, the plates chilled and cells lysed in a lysis buffer (150 mM NaCl, 20 mM Tris pH 7.5, 1 mM EDTA, 1 mM EGTA, 1% Triton X-100) supplemented with phosphatase and protease inhibitors. After thorough mixing, lysates were transferred to both pSer473Akt and total Akt assay plates from Meso Scale Discovery (MSD), and incubated overnight with shaking at 4° C.
The assays were read on a SECTOR Imager 6000 instrument (Meso Scale Discovery). Ratios of the signal from pSer473Akt and total Akt assays were used to correct for any variability and the percent inhibition of pSer473Akt from the total signal seen in cells treated with compound versus DMSO alone was calculated and used to determine EC50 values for each compound.

PI3 kinase alpha = PI3 kinase alpha (Homo sapiens, UniProt P42336); experiment: PI3K ATP depletion assay (Biological Method 1, Assay 3; KinaseGlo luminescence); assay type: biochemical; settings: ATP depletion assay, read-out: PI3 Kinase Alpha, IC50
Procedure, shortened: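 Compound in DMSO was mixed with 10 nM PI3 kinase and 5 μg/mL phosphatidylinositol, and the reaction was started with 2 μM ATP. It ran to about 50% ATP depletion and was stopped with KinaseGlo.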

[3] = ovarian cancer cell line A2780, Biological Method 4

Sequence of PI3 kinase alpha (P42336 whole entry): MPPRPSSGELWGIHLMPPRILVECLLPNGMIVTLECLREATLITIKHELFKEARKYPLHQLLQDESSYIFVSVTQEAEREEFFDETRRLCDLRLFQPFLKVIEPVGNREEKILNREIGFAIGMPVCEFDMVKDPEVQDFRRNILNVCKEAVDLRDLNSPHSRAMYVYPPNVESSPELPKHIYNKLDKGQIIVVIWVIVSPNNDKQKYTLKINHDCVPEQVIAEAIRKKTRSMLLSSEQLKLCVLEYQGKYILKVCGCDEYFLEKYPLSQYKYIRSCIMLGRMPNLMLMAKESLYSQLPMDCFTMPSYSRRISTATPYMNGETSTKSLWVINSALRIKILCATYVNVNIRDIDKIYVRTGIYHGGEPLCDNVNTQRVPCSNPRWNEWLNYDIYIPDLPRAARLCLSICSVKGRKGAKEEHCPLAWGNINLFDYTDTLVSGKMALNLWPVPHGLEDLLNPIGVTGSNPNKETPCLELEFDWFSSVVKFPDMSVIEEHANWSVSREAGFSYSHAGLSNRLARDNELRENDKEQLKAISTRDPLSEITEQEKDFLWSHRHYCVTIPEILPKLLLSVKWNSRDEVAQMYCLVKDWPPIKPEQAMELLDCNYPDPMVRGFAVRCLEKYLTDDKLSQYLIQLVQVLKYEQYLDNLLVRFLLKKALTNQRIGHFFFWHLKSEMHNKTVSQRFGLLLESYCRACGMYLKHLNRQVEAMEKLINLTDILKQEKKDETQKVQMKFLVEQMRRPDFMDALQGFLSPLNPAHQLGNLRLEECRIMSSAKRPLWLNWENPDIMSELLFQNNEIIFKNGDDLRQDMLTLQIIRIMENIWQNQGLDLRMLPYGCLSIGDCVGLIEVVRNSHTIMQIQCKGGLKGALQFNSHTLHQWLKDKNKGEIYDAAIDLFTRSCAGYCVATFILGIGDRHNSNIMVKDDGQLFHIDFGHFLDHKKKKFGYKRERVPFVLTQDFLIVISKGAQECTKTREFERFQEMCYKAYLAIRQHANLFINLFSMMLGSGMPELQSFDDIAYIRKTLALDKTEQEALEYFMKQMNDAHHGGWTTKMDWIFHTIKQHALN
Sequence of PI3 kinase alpha (P27986 whole entry partner): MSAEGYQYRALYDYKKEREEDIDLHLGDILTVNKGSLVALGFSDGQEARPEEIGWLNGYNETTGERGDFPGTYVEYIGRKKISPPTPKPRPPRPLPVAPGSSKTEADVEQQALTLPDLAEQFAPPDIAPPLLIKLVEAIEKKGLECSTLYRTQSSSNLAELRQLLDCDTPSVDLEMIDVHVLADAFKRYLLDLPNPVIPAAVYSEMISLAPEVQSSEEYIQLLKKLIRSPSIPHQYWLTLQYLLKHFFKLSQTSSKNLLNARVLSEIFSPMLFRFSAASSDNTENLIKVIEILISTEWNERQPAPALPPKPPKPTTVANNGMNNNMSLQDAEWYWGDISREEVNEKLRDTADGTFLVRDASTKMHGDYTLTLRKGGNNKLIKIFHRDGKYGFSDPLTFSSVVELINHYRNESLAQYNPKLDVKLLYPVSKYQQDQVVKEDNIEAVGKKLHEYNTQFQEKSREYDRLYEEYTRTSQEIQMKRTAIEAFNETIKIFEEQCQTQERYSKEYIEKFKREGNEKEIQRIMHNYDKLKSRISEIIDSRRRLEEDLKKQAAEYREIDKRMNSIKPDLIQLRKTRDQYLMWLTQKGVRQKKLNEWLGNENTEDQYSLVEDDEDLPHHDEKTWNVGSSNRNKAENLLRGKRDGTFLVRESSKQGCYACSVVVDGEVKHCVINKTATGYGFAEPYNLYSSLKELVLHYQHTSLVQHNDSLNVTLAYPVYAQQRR

Row | Compound | EC50 [1, 3] [nM] | EC50 ([2]; A2780, Biological Method 2) [nM] | IC50 (PI3 kinase alpha; Biological Method 1) [nM] | EC50 ([1]; ovarian cancer cell line A2780) [nM] | EC50 ([2]; A2780 cells) [nM] | IC50 (PI3 kinase alpha) [nM] | EC50 ([2]; A2780) [nM]
1 | CC(=O)c1cccc(Nc2cc(-c3ccc(N)nc3)nc(N3CCOCC3)n2)c1 [Compound 174] | – | – | – | < 10000 | < 1000 | < 1000 | –
2 | Cc1c(-c2ccc(Nc3ncc(-c4ccccc4)s3)nc2)nc(N2CCOCC2)nc1-c1cnc(N)nc1 [Compound 194] | – | – | – | < 10000 | < 1000 | < 1000 | –
3 | CS(=O)(=O)c1ccc2cc(Nc3cc(-c4ccc(N)nc4)nc(N4CCOCC4)n3)cnc2c1 [Compound 149] | – | – | – | < 10000 | < 1000 | < 1000 | –
4 | COc1cc(Nc2cc(-c3cnc(N)cc3C(F)(F)F)nc(N3CCOCC3)n2)ccc1OC1CCN(C(C)C)CC1 [Compound 553] | – | – | – | < 1000 | – | < 1000 | < 1000
5 | CN(C)CCOc1ccc(Nc2cc(-c3cnc(N)nc3)nc(N3CCOCC3)n2)cn1 [Compound 36] | – | – | – | < 1000 | < 1000 | < 1000 | –
6 | CCN(CC)CCc1csc(Nc2cc(-c3cnc(N)cc3C(F)(F)F)nc(N3CCOCC3)n2)n1 [Compound 13] | – | – | – | < 1000 | < 1000 | < 1000 | –
7 | CCc1c(Nc2cnc3ccccc3c2)nc(N2CCOCC2)nc1-c1cnc(N)nc1 [Compound 98] | – | – | – | < 1000 | < 1000 | < 1000 | –
8 | COc1ccc2cc(Nc3cc(-c4cnc(N)nc4)nc(N4CCOCC4)n3)cnc2c1 [Compound 60] | – | – | – | < 1000 | < 1000 | < 1000 | –
9 | CCc1c(Nc2cnc3ccccc3c2)nc(N2CCOCC2)nc1-c1ccc(N)nc1 [Compound 213] | < 1000 | < 10000 | < 1000 | – | – | – | –
10 | NC(=O)c1ccc(Nc2cc(-c3ccc(N)nc3)nc(N3CCOCC3)n2)cc1 [Compound 197] | – | – | – | < 10000 | < 1000 | < 1000 | –
11 | CS(=O)(=O)c1ccnc(Nc2cc(-c3cnc(N)cc3C(F)(F)F)nc(N3CCOCC3)n2)c1 [Compound 109] | – | – | – | < 10000 | < 1000 | < 1000 | –
12 | COc1cccc2ncc(Nc3cc(-c4cnc(N)cc4C(F)(F)F)nc(N4CCOCC4)n3)cc12 [Compound 140] | – | – | – | < 10000 | < 1000 | < 1000 | –
13 | COc1cccc2ncc(Nc3cc(-c4ccc(N)nc4)nc(N4CCOCC4)n3)cc12 [Compound 156] | – | – | – | < 1000 | < 1000 | < 1000 | –
14 | Nc1cc(C(F)(F)F)c(-c2cc(Nc3cccc(S(=O)(=O)N4CCCCC4)c3)nc(N3CCOCC3)n2)cn1 [Compound 207] | < 1000 | < 10000 | < 1000 | – | – | – | –
15 | CS(=O)(=O)c1ccc(Nc2cc(-c3cnc(N)cc3C(F)(F)F)nc(N3CCOCC3)n2)cn1 [Compound 128] | – | – | – | < 10000 | < 1000 | < 1000 | –
16 | CS(=O)(=O)c1cc(Nc2cc(-c3cnc(N)cc3C(F)(F)F)nc(N3CCOCC3)n2)ccn1 [Compound 90] | – | – | – | < 1000 | < 1000 | < 1000 | –
17 | CS(=O)(=O)Nc1ncccc1-c1cc(-c2cnc(N)cc2C#N)nc(N2CCOCC2)n1 [Compound 136] | – | – | – | < 1000 | < 1000 | < 1000 | –
18 | Nc1ccc(-c2cc(Nc3ccncc3C(F)(F)F)nc(N3CCOCC3)n2)cn1 [Compound 142] | – | – | – | < 1000 | < 1000 | < 1000 | –
19 | CS(=O)(=O)c1cccc(-c2cc(-c3cnc(N)[nH]c3=O)nc(N3CCOCC3)n2)c1 [Compound 105] | – | – | – | < 1000 | < 1000 | < 1000 | –
20 | CCOc1cc(Nc2cc(-c3ccc(N)nc3)nc(N3CCOCC3)n2)ccn1 [Compound 102] | – | – | – | < 1000 | < 1000 | < 1000 | –
21 | N#Cc1ccnc(Nc2cc(-c3ccc(N)nc3)nc(N3CCOCC3)n2)c1 [Compound 152] | – | – | – | < 10000 | < 1000 | < 1000 | –
22 | Nc1ncc(-c2cc(Nc3ccc(Oc4ccccc4)nc3)nc(N3CCOCC3)n2)cn1 [Compound 107] | – | – | – | < 10000 | < 1000 | – | –
23 | Nc1cc(C(F)(F)F)c(-c2cc(Nc3cnc4ccccc4c3)nc(N3CCOCC3)n2)cn1 [Compound 193] | – | – | – | < 1000 | < 1000 | – | –

Second part, the compound after the results:

Row | EC50 [1, 3] [nM] | EC50 ([2]; A2780, Biological Method 2) [nM] | IC50 (PI3 kinase alpha; Biological Method 1) [nM] | EC50 ([1]; ovarian cancer cell line A2780) [nM] | EC50 ([2]; A2780 cells) [nM] | IC50 (PI3 kinase alpha) [nM] | EC50 ([2]; A2780) [nM] | Compound
24 | < 10000 | < 1000 | < 1000 | – | – | – | – | CC(=O)Nc1cc(-c2cnc(N)nc2)nc(N2CCOCC2)n1 [Compound 205]
25 | – | – | – | < 1000 | < 1000 | < 1000 | – | COC(=O)N1CCC[C@@H](Oc2cc(-c3cnc(N)nc3N)nc(N3CCOCC3)n2)C1 [Compound 63]
26 | – | – | – | < 1000 | < 1000 | < 1000 | – | Cc1cc(Nc2cc(-c3cnc(N)nc3C(F)(F)F)nc(N3CCOCC3)n2)ccn1 [Compound 52]
27 | – | – | – | < 1000 | < 1000 | < 1000 | – | Nc1ncc(-c2cc(Nc3ccc4c(c3)OCCO4)nc(N3CCOCC3)n2)c(C(F)(F)F)n1 [Compound 164]
28 | – | – | – | < 1000 | < 1000 | < 1000 | – | COC(=O)N1CCC(Oc2cc(-c3cnc(N)nc3N)nc(N3CCOCC3)n2)CC1 [Compound 81]
29 | – | – | – | < 1000 | < 1000 | < 1000 | – | CCN(CC)Cc1cnc(Nc2cc(-c3cnc(N)nc3N)nc(N3CCOCC3)n2)s1 [Compound 59]
30 | – | – | – | < 1000 | < 1000 | < 1000 | – | CS(=O)(=O)Nc1ncccc1-c1cc(-c2cnc(N)nc2C(F)(F)F)nc(N2CCOCC2)n1 [Compound 69]
31 | < 10000 | < 10000 | < 1000 | – | – | – | – | Nc1cc(C(F)(F)F)c(-c2cc(N3CCOc4ccccc43)nc(N3CCOCC3)n2)cn1 [Compound 210]
32 | – | – | – | < 10000 | < 1000 | < 1000 | – | Nc1cc(C(F)(F)F)c(-c2cc(O[C@@H]3CCOC3)nc(N3CCOCC3)n2)cn1 [Compound 25]
33 | – | – | – | < 1000 | < 1000 | < 1000 | – | CS(=O)(=O)Nc1ncccc1-c1cc(-c2ccc(N)nc2)nc(N2CCOCC2)n1 [Compound 3]
34 | – | – | – | < 1000 | < 1000 | < 1000 | – | Nc1ncc(-c2cc(O[C@@H]3CCOC3)nc(N3CCOCC3)n2)c(N)n1 [Compound 108]
35 | – | – | – | < 10000 | < 1000 | < 1000 | – | Nc1ncc(-c2cc(O[C@H]3CCOC3)nc(N3CCOCC3)n2)c(N)n1 [Compound 101]
36 | – | – | – | < 1000 | < 1000 | < 1000 | – | CC(=O)N1CCC[C@@H](Oc2cc(-c3cnc(N)nc3N)nc(N3CCOCC3)n2)C1 [Compound 29]
37 | < 25000 | < 10000 | < 1000 | – | – | – | – | CS(=O)(=O)c1ccc(Nc2cc(-c3cnc(N)[nH]c3=O)nc(N3CCOCC3)n2)cn1 [Compound 208]
38 | – | – | – | < 10000 | < 1000 | < 1000 | – | Nc1ncc(-c2cc(NC(=O)c3cccnc3)nc(N3CCOCC3)n2)cn1 [Compound 189]
39 | – | – | – | < 10000 | < 1000 | < 1000 | – | Nc1ncc(-c2cc(O[C@H]3CCCN(C(=O)OC4CCCC4)C3)nc(N3CCOCC3)n2)c(N)n1 [Compound 186]
40 | – | – | – | < 10000 | < 1000 | < 1000 | – | Nc1ncc(-c2cc(Nc3ccc(F)cc3)nc(N3CCOCC3)n2)cn1 [Compound 123]
41 | – | – | – | < 1000 | < 1000 | < 1000 | – | CC(C)(C)OC(=O)N1CCC(Oc2cc(-c3cnc(N)nc3C(F)(F)F)nc(N3CCOCC3)n2)CC1 [Compound 27]
42 | – | – | – | < 1000 | < 1000 | < 1000 | – | Nc1ncc(-c2cc(OC3CCOCC3)nc(N3CCOCC3)n2)c(=O)[nH]1 [Compound 50]
43 | – | – | – | < 1000 | < 1000 | < 1000 | – | Nc1cc(F)c(-c2cc(Nc3cnc4ccccc4c3)nc(N3CCOCC3)n2)cn1 [Compound 4]
44 | – | – | – | < 10000 | < 1000 | < 1000 | – | COc1ccc(Nc2cc(-c3cnc(N)nc3N)nc(N3CCOCC3)n2)cn1 [Compound 73]
45 | – | – | – | < 1000 | < 1000 | – | – | Nc1cc(Cl)c(-c2cc(Nc3cnc4ccccc4c3)nc(N3CCOCC3)n2)cn1 [Compound 175]
46 | – | – | – | < 1000 | < 1000 | – | – | Nc1ncc(-c2cc(Nc3cnc4ccccc4c3)nc(N3CCOCC3)n2)c(C(F)(F)F)n1 [Compound 192]
47 | – | – | – | < 1000 | < 1000 | – | – | Cc1nc(N)ncc1-c1cc(Nc2cnc3ccccc3c2)nc(N2CCOCC2)n1 [Compound 96]
48 | – | – | – | < 10000 | < 1000 | – | – | Nc1cc(Cl)c(-c2cc(N3CCOCC3)nc(N3CCOCC3)n2)cn1 [Compound 114]
49 | – | – | – | < 1000 | < 1000 | – | – | N#Cc1cc(N)ncc1-c1cc(N2CCOCC2)nc(N2CCOCC2)n1 [Compound 162]
50 | – | – | – | < 1000 | < 1000 | – | – | CN1CCC(Oc2ccc(Nc3cc(-c4cnc(N)nc4)nc(N4CCOCC4)n3)cn2)CC1 [Compound 37]

From patent US8217035B2, “Pyrimidine derivatives used as PI-3-kinase inhibitors” (Novartis AG, priority 2006, dated 2012)
